In general, mortality refers to the share of the test organisms that died.

Data set [1] is described as follows: LogP by HPLC on reversed phase columns (EEC directive 79/831 Annex V.A8). Format: physicochemical. The protocol: Calibration was done with straight-chain alkan2-ones (with 3 to 16 carbon atoms) with known Log P values (measurement of Log P values using retention times with linear interpolation between successive alkanones). Lambda-max-values were determined using UV-spectra from 200 nm to 400 nm and the peak values of the chromatographic signals.

A further data set relates to Haemonchus contortus. Briefly: In vitro assay with Haemonchus contortus (HAEMCO), larval mortality. Particulars: 120 h; for mortality at 20 ppm: read-out: activity (larval mortality). The protocol: In Vitro Assay with Haemonchus contortus (HAEMCO)
(§1) Solvent: Dimethyl Sulfoxide
(§2) To produce a suitable preparation of active compound, 10 mg of active compound are dissolved in 0.5 ml solvent, and the concentrate is diluted with “Ringer's solution” to the desired concentration.
Approximately 40 larvae of the red stomach worm (Haemonchus contortus) are transferred into a test tube containing compound solution.
After 5 days percentage of larval mortality are recorded. 100% efficacy means all larvae are killed, 0% efficacy means no larvae are killed.

The subject of data set [2] is Nippostrongylus brasiliensis. Briefly: In vitro assay with Nippostrongylus brasiliensis (NIPOBR), acetylcholine esterase readout. Particulars: adult worms, read-out: activity (reduction of AChE compared to negative control); for inhibition at 1 ppm: 1 ppm (1 μg/ml); for inhibition at 10 ppm: 10 ppm (10 μg/ml). The protocol:
In Vitro Assay with Nippostrongylus brasiliensis (NIPOBR)
Adult Nippostrongylus brasiliensis were washed with saline buffer containing 100 U/ml penicillin, 0.1 mg/ml streptomycin and 2.5 μg/ml amphotericin B. Test compounds were dissolved in DMSO and worms were incubated in medium in a final concentration of 10 μg/ml (10 ppm) respectively 1 μg/ml (1 ppm). An aliquot of the medium was used to determine the acetylcholine esterase activity in comparison to a negative control. The principle of measuring acetylcholine esterase as readout for anthelmintic activity was described in Rapson et al (1986) and Rapson et al (1987).

The test system of the next data set is Cooperia curticei. Briefly: In vitro assay with Cooperia curticei (COOPCU), larval mortality. Particulars: 120 h, read-out: activity (larval mortality). The method, then: In Vitro Assay with Cooperia curticei (COOPCU)
as §1, §2
Approximately 40 nematode larvae (Cooperia curticei) are transferred into a test tube containing the compound solution.
After 5 days percentage of larval mortality is recorded. 100% efficacy means all larvae are killed; 0% efficacy means no larvae are killed.

Another data set deals with Meloidogyne incognita. Briefly: Meloidogyne incognita (MELGIN) assay, gall formation on salad seedlings. The format is in vivo. Particulars: 336 h, after 14 days, read-out: nematicidal activity (percentage of gall formation; 100% = no galls). The method, then: Meloidogyne incognita (MELGIN) Assay
Solvent: 125.0 parts by weight of acetone
To produce a suitable preparation of active compound, 1 part by weight of active compound is mixed with the stated amount of solvent, and the concentrate is diluted with water to the desired concentration.
Vessels are filled with sand, a solution of the active ingredient, a suspension containing eggs and larvae of the southern root-knot nematode (Meloidogyne incognita) and salad seeds. The salad seeds germinate and the seedlings grow. Galls develop in the roots.
After 14 days the nematicidal activity is determined on the basis of the percentage of gall formation. 100% means no galls were found and 0% means the number of galls found on the roots of the treated plants was equal to that in untreated control plants.

Setting [3] is: LC-UV, acidic range, 0.1% formic acid in water and acetonitrile, read-out: logP (HCOOH) [a].
Setting [4] is: reversed-phase HPLC column, LC-UV, acidic range, 0.1% formic acid in water and acetonitrile, read-out: logP (HCOOH) [a].

The structures appear in SMILES notation. Where two headings read alike, the source gives them in different places.

Take `CC(=O)Nc1ccc(-c2cnc(C(F)(F)CNC(=O)c3ccccc3C(F)(F)F)c(Cl)c2)cc1` [Example 38]: the chromatographic logP in data set [1] (setting [3]) stood at 2.7.

`O=C(NCC(F)(F)c1ncc(-c2ccc(Cl)cc2Cl)cc1Cl)c1ccccc1C(F)(F)F` [Example 15]: in the data set on Haemonchus contortus, the mortality at 20 ppm was found to be 100%. Further, the chromatographic logP in data set [1] (logP (HCOOH) [a]) was determined as 4.57. Also, in data set [2], the inhibition at 1 ppm is not below 60% and the inhibition at 10 ppm was not below 60%. Further, the mortality at 20 ppm with Cooperia curticei stood at 100%. For the same molecule, the pest or weed control at 20 ppm in the data set with Meloidogyne incognita was found to be 90%.

As to `CC(F)(CNC(=O)c1cccnc1C(F)(F)F)c1ncc(-c2ccccc2)cc1Cl` (stereo not shown) [Example 28], the chromatographic logP in data set [1] (setting [3]) was found to be 3.38.

As to `O=C(NCC(F)(F)c1ncc(-c2ccccc2Cl)cc1Cl)c1ccccc1C(F)(F)F` [Example 16], the mortality at 20 ppm with Haemonchus contortus amounted to 100%. The molecule also showed a chromatographic logP in data set [1] (logP (HCOOH) [a]) of 4. Further, in data set [2], the inhibition at 1 ppm is not below 60% and the inhibition at 10 ppm was not below 60%. In the data set on Cooperia curticei, the mortality at 20 ppm is 100%.

In the case of `O=C(NCC(F)(F)c1ncc(-c2cccc(Cl)c2)cc1Cl)c1ccccc1C(F)(F)F` [Example 3], in the data set on Haemonchus contortus, the mortality at 20 ppm was determined as 100%. Also, the chromatographic logP in data set [1] (logP (HCOOH) [a]) came out at 4.17. In data set [2], the inhibition at 1 ppm was not below 60% and the inhibition at 10 ppm was not below 60%. Further, the mortality at 20 ppm with Cooperia curticei came to 100%.

For the molecule `CSc1ccc(-c2cnc(C(F)(F)CNC(=O)c3ccccc3C(F)(F)F)c(Cl)c2)cc1` [Example 35], in data set [1] (setting [3]), the chromatographic logP is 4.1.

As for `CC(F)(CNC(=O)c1cccnc1C(F)(F)F)c1ncc(-c2ccc(Cl)cc2)cc1Cl` (stereo not shown) [Example 20], in data set [1] (setting [3]), the chromatographic logP came out at 3.83.

Turning to `O=C(NCC(F)(F)c1ncc(-c2cc(F)cc(F)c2)cc1Cl)c1ccccc1C(F)(F)F` [Example 12], the mortality at 20 ppm in the data set on Haemonchus contortus and in the data set on Cooperia curticei was 100% each time. Besides, the chromatographic logP in data set [1] (logP (HCOOH) [a]) is 3.89. Further, the inhibition at 1 ppm in data set [2] was not below 60%. In data set [2], the inhibition at 10 ppm is not below 60%.

Regarding `CNc1ccc(-c2cnc(C(F)(F)CNC(=O)c3ccccc3C(F)(F)F)c(Cl)c2)cc1` [Example 36], the chromatographic logP in data set [1] (setting [3]) was found to be 3.39.

As to `COc1ccc(-c2cnc(C(F)(F)CNC(=O)c3ccccc3C(F)(F)F)c(Cl)c2)cc1Cl` [Example 6], the mortality at 20 ppm in the data set on Haemonchus contortus (20 ppm, after 5 days) was 100%; in the data set on Cooperia curticei, 100%. Moreover, the chromatographic logP in data set [1] (setting [3]) turned out to be 3.94. Moreover, in the data set with Meloidogyne incognita, the pest or weed control at 20 ppm was found to be 90%.

Regarding `O=C(NCC(F)(F)c1ncc(-c2ccc(Cl)cc2)cc1Cl)c1ccccc1C(F)(F)F` [Example 2, N-{2-[3-chloro-5-(4-chlorophenyl)pyridin-2-yl]-2,2-difluoroethyl}-2-(trifluoromethyl)-benzamide], the mortality at 20 ppm stood at 100% with Haemonchus contortus (20 ppm, after 5 days) and 100% in the data set with Cooperia curticei. Further, the chromatographic logP in data set [1] (setting [3]) turned out to be 4.17. In addition, in data set [2], the inhibition at 1 ppm was not below 60%.

For the molecule `O=C(NCC(F)(F)c1ncc(-c2ccc3c(c2)OC(F)(F)O3)cc1Cl)c1ccccc1C(F)(F)F` [Example 25], the chromatographic logP in data set [1] (setting [3]) worked out at 4.18.

In the case of `CN(C)c1ccc(-c2cnc(C(F)(F)CNC(=O)c3ccccc3C(F)(F)F)c(Cl)c2)cc1` [Example 17], the mortality at 20 ppm with Haemonchus contortus (20 ppm, after 5 days) was determined as 100%; in the data set with Cooperia curticei, 100%. Further, the chromatographic logP in data set [1] (setting [3]) was found to be 4.09.

With `O=C(NCC(F)(F)c1ncc(-c2ccc(F)c(C(F)(F)F)c2)cc1Cl)c1ccccc1C(F)(F)F` [Example 34], the chromatographic logP in data set [1] (setting [3]) amounted to 4.19.

For the molecule `O=C(NCC(F)(F)c1ncc(-c2ccc(F)cc2)cc1Cl)c1nccnc1C(F)(F)F` [Example 19], the mortality at 20 ppm with Haemonchus contortus (20 ppm, after 5 days) was found to be 100%; in the data set on Cooperia curticei, 100%. In addition, the chromatographic logP in data set [1] (setting [3]) came out at 3.51. Moreover, the pest or weed control at 20 ppm in the data set with Meloidogyne incognita turned out to be 90%.

Turning to `N#Cc1ccc(-c2cnc(C(F)(F)CNC(=O)c3ccccc3C(F)(F)F)c(Cl)c2)cc1` [Example 37], the chromatographic logP in data set [1] (setting [4]) came out at 3.29.

For `O=C(NCC(F)(F)c1ncc(-c2cccc(C(F)(F)F)c2)cc1Cl)c1ccccc1C(F)(F)F` [Example 10], the mortality at 20 ppm in the data set with Haemonchus contortus and in the data set on Cooperia curticei was 100% each time. The same molecule had a chromatographic logP in data set [1] (logP (HCOOH) [a]) of 4.17. The inhibition at 1 ppm in data set [2] is not below 60%.

Take `Cc1ccc(-c2cnc(C(C)(F)CNC(=O)c3cccnc3C(F)(F)F)c(Cl)c2)cc1` (stereo not shown) [Example 22]: in data set [1] (setting [3]), the chromatographic logP came to 2.15.

Consider `O=C(NCC(F)(F)c1ncc(-c2ccc(N3CCCC3)cc2)cc1Cl)c1ccccc1C(F)(F)F` [Example 30], for which the mortality at 20 ppm in the data set with Haemonchus contortus (20 ppm, after 5 days) was 90%; with Cooperia curticei it was 100%. Moreover, the chromatographic logP in data set [1] (setting [3]) was found to be 4.83.

As for `Cc1ccc(-c2cnc(C(C)(F)CNC(=O)c3ccccc3C(F)(F)F)c(Cl)c2)cc1` (stereo not shown) [Example 29], the chromatographic logP in data set [1] (setting [3]) was 4.35.

With `O=C(NCC(F)(F)c1ncc(-c2ccc(N3CCOCC3)cc2)cc1Cl)c1ccccc1C(F)(F)F` [Example 32], the chromatographic logP in data set [1] (setting [3]) worked out at 3.59. In the data set on Cooperia curticei, the mortality at 20 ppm was 100%.

In the case of `CC(F)(CNC(=O)c1ccccc1C(F)(F)F)c1ncc(-c2ccc(F)cc2)cc1Cl` (stereo not shown) [Example 21, N-{2-[3-chloro-5-(4-fluorophenyl)pyridin-2-yl]-2-fluoropropyl}-2-(trifluoromethyl) benzamide], the chromatographic logP in data set [1] (setting [3]) is 3.96. For the same molecule, in the data set with Meloidogyne incognita, the pest or weed control at 20 ppm was found to be 100%.

Regarding `O=C(NCC(F)(F)c1ncc(-c2ccccc2F)cc1Cl)c1ccccc1C(F)(F)F` [Example 13], the mortality at 20 ppm with Haemonchus contortus and in the data set on Cooperia curticei was 100% throughout. Moreover, the chromatographic logP in data set [1] (logP (HCOOH) [a]) is 3.73. Moreover, in data set [2], the inhibition at 1 ppm was not below 60%.

For `CN1CCN(c2ccc(-c3cnc(C(F)(F)CNC(=O)c4ccccc4C(F)(F)F)c(Cl)c3)cc2)CC1` [Example 31], the mortality at 20 ppm is 100% in the data set with Haemonchus contortus (20 ppm, after 5 days) and 100% in the data set on Cooperia curticei. Besides, the chromatographic logP in data set [1] (setting [3]) was found to be 1.78; in data set [1] (LC-UV, neutral range, 0.001 molar ammonium acetate solution in water and acetonitrile, read-out: logP [b]) it was 3.39.

Regarding `O=C(NCCc1ccc(-c2ccc(OC(F)(F)F)cc2)cc1)c1ccccc1C(F)(F)F` [Ex.-No. 1-49, reference compound], in the data set with Haemonchus contortus (HAEMCO, 0.8 ppm, 5dat, comparative example, read-out: % Efficacy), the Emax at 0.8 ppm was determined as 60%. For the same molecule, the Emax at 4 ppm in the data set with Haemonchus contortus (HAEMCO, 4 ppm, 5dat, comparative example, read-out: % Efficacy) was determined as 60%. The Emax at 20 ppm in the data set with Haemonchus contortus (HAEMCO, 20 ppm, 5dat, comparative example, read-out: % Efficacy) was 80%.

Consider `O=C(NCC(F)(F)c1ncc(-c2ccc(SC(F)(F)F)cc2)cc1Cl)c1ccccc1C(F)(F)F` [Example 39], for which, in data set [1] (setting [3]), the chromatographic logP was determined as 4.65.

`O=C(NCC(F)(F)c1ncc(-c2ccc(F)cc2)cc1Cl)c1cccnc1C(F)(F)F` [Example 26]: the chromatographic logP in data set [1] (setting [3]) worked out at 3.29. The pest or weed control at 20 ppm in the data set on Meloidogyne incognita is 100%.

For `CS(=O)(=O)c1ccc(-c2cnc(C(F)(F)CNC(=O)c3ccccc3C(F)(F)F)c(Cl)c2)cc1` [Example 33], the chromatographic logP in data set [1] (setting [3]) came out at 2.65.

Consider `Cc1ccccc1-c1cnc(C(F)(F)CNC(=O)c2ccccc2C(F)(F)F)c(Cl)c1` [Example 9], for which the mortality at 20 ppm worked out at 100% in the data set with Haemonchus contortus (20 ppm, after 5 days) and 100% with Cooperia curticei. Moreover, the chromatographic logP in data set [1] (setting [3]) was 4. Besides, the pest or weed control at 20 ppm in the data set on Meloidogyne incognita came to 100%.

As to `NCC(F)(F)c1ncc(-c2ccc(F)cc2)cc1Cl` [INT-1, 2-[3-chloro-5-(4-fluorophenyl)-2-pyridyl]-2,2-difluoro-ethanamine], the chromatographic logP in data set [1] (setting [4]) was determined as 1.18; in data set [1] (reversed-phase HPLC column, LC-UV, neutral range, 0.001 molar ammonium acetate solution in water and acetonitrile, read-out: logP [b]), 2.61.

On to `CC(F)(CNC(=O)c1ccccc1C(F)(F)F)c1ncc(-c2ccccc2)cc1Cl` (stereo not shown) [Example 23], for which, in data set [1] (setting [3]), the chromatographic logP amounted to 3.92.

The values above are taken from patent publication US9776967B2, “Carboxamide derivatives as pesticidal compounds” (priority 2013, dated 2017).
